This data set is described as follows: gradient 5% acetonitrile 3 min, to 50% in 2 min, to 85% in 15 min, held 3 min, 100 µL/min. The note with it: column: Zorbax Extend-C18 2.1 x 50 mm; eluents: water / acetonitrile, 0.1% formic acid. Summed up:
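Retention time was recorded from adduct peaks, which were picked computationally and each inspected manually. Pure standards ran in mixtures of ~100 molecules on HPLC coupled to a quadrupole time-of-flight mass spectrometer, in positive and negative ionization mode, through a Zorbax Extend-C18 column (2.1 × 50 mm, 1.8 μm) at 100 μL/min. Eluents were water and acetonitrile, each with 0.1% formic acid.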
The compound `COc1cccc(N2CCN(C(=O)CCc3nnc4c5cc(-c6ccccc6)nn5ccn34)CC2)c1` came in with an RP-LC retention time of 791 s.
Take `COCC1(O)CCOC2(CCN(Cc3ccc(C)cn3)CC2)C1` (centres undefined): the RP-LC retention time came out at 568 s.
As for `O=C(N[C@H]1C[C@@H]2C[C@H]1N(S(=O)(=O)c1cccs1)C2)c1ccccc1`, the figure is 833 s; as for `Cn1cnc([N+](=O)[O-])c1S(=O)(=O)Oc1cccc2ccccc12`, 970 s.
As for `Cc1noc(-c2cc(=O)n(CC(=O)NC3CCCCC3)c3ccccc23)n1`, the figure is 819 s; as for `O=C(NC1CCCCCC1)C1CCN(C(=O)C2Sc3ccccc3NC2=O)CC1` (centres undefined), 613 s; as for `O=C(C1CCN(c2ccc3nncn3n2)CC1)N1CCN(c2ncccn2)CC1`, 604 s.
For `CCN1C(=O)COc2ccc(-c3csc(NC(=O)c4ccc(OC)cc4)n3)cc21` the value was 976 s; for `CC(C)NC(=O)N1CCC(c2nc3cccnc3n2C)C1` (centres undefined), 572 s.
The compound `CC(C)n1c(=O)oc2cc(-c3noc(CNC(=O)Cc4ccccc4)n3)ccc21` yielded an RP-LC retention time of 842 s.
`CCn1ccc2cc(S(=O)(=O)N3CCCC(C(=O)N4CCN(c5ccccn5)CC4)C3)ccc21` (centres undefined) had an RP-LC retention time of 609 s.
As for `Cc1ccccc1Nc1c(-c2cccc(Br)c2)nc2c(C)cccn12`, the figure is 849 s; as for `CCCCOc1ccc(C(=O)Nc2ccc(-c3cn4ccc(C)nc4n3)cc2)cc1`, 781 s.
For `CCCC(=O)Nc1ccc2c(c1)CC(C(=O)NCCOC)CO2` (centres undefined) the value was 646 s; for `O=C(Nc1ccc(Nc2cc(-n3ccnc3)ncn2)cc1)c1c[nH]c2ccccc12`, 562 s; for `CCCn1c(CCNC(=O)c2ccc(CC)cc2)nc2cccnc21`, 723 s.
As for `Cc1cc(OCC(=O)NCc2ccc3c(c2)OCO3)nc(-c2ccc(F)cc2)n1`, the figure is 942 s; as for `CCCn1c(=O)c2cc(C(=O)N3CCN(Cc4ccccc4)CC3)nn2c2ccccc21`, 590 s.
With `COc1cc(Cl)c(NC(=O)C2CCCN(c3nccnc3Sc3ccc(C)cc3)C2)c(OC)c1` (centres undefined), the RP-LC retention time was 1260 s.
For the compound `COc1ccc(NC(=O)CN2C(=O)NC3(CCC(C)CC3)C2=O)cc1OC` (centres undefined), the RP-LC retention time was 720 s.
As for `CCc1ccc(S(=O)(=O)Nc2cc(-c3cn4ccccc4n3)ccc2C)cc1`, the RP-LC retention time was 695 s.
As for `COc1cc(N2CCC(N3CCN(C)CC3)CC2)ccc1Nc1ncc(Cl)c(Nc2ccccc2S(=O)(=O)C(C)C)n1`, the figure is 694 s; as for `O=C(CCc1nnc2ccc(N3CCOCC3)nn12)N1CCN(c2ccccn2)CC1`, 566 s; as for `COc1ccc(Cl)cc1S(=O)(=O)NCC1(C)CCOCC1`, 874 s.
For `COc1ccc(S(=O)(=O)N2CCC(c3noc(C4CC4)n3)C2)cc1` (centres undefined) the value was 847 s; for `COc1ccc(OC)c(C(O)CN2CCN(c3ccc(C)cc3)CC2)c1` (centres undefined), 653 s; for `COc1ccc(CNC(=O)c2cc(-c3ccccc3)ns2)cc1`, 905 s.
For `CCOC(=O)/C(C#N)=C\c1c[nH]c2ccccc12` the value was 649 s.
`COC(=O)c1c(NC(C)c2cccnc2)c2cccc(Cl)c2[nH]c1=O` (centres undefined) returned an RP-LC retention time of 572 s.
Compound `Fc1ccc(-c2n[nH]c(C3CCN(C4CCCC4)CC3)n2)cc1` showed an RP-LC retention time of 611 s.
For `N#Cc1cccc(NC(=O)Cn2cccc(-c3nc(-c4ccc(Br)cc4)no3)c2=O)c1` the value was 958 s; for `O=C(NCCc1csc(-c2ccccc2)n1)C1CCN(S(=O)(=O)c2ccccc2F)CC1`, 893 s.
With `Cc1ccc(NC(=O)CN2C(=O)NC3(CCCCC3)C2=O)cc1`, the RP-LC retention time came out at 760 s.
As for `Cc1sc(-c2cc(C(F)(F)F)[nH]n2)cc1S(=O)(=O)N1CCN(c2ccccc2)CC1`, the RP-LC retention time was found to be 1110 s.
For `COc1ccccc1C(=O)N1CCC2(C1)C(=O)N(C)c1ccccc12` (centres undefined) the value was 738 s; for `O=S(=O)(Nc1ccc(Cn2cncn2)cc1)c1ccc(F)c(F)c1`, 721 s; for `CCN1C(=O)C(C(=O)Nc2cccc(C)c2)C2CC1(C)Oc1ccccc12` (centres undefined), 1060 s.
`COc1ccc(-c2nc(-c3cccc(-c4ccn[nH]4)c3)no2)cc1OC`: the RP-LC retention time is 905 s.
As for `CC(=O)N1CCC(C(=O)Nc2ncc(C)s2)CC1`, the figure is 617 s.
For `O=C(CN1C(=O)NC2(CCCCC2)C1=O)NCCc1ccc(Cl)cc1` the value was 790 s.
As for `COc1ccc(OC)c(-c2cn3ccn(-c4ccc(C)c(Cl)c4)c(=O)c3n2)c1`, the figure is 982 s; as for `COc1cc(C2CC(=O)c3c([nH]c(C(=O)OC4CCCCCC4)c3C)C2)cc(OC)c1OC` (centres undefined), 1160 s.
Compound `COc1ccc(OC)c(NC(=O)NCC(c2cccnc2)c2c[nH]c3ccccc23)c1` (centres undefined) gave an RP-LC retention time of 662 s.
For `COc1ccccc1CNS(=O)(=O)c1cccc(-c2nc(-c3ccccc3)no2)c1` the value was 1150 s.
For the compound `Cc1cccc(NC(=O)NC2CCN(c3ccccc3)C2=O)c1` (centres undefined), the RP-LC retention time was 814 s.
For `O=C(Nc1nc(-c2cccs2)cs1)c1cccc([N+](=O)[O-])c1` the value was 936 s; for `CCS(=O)(=O)c1ncc(Cl)c(C(=O)Nc2ccc(Oc3ccccc3)cc2)n1`, 929 s.
As for `CC1CCN(S(=O)(=O)c2ccc(-c3nnc(C(=O)NCc4cccs4)o3)cc2)CC1`, the figure is 910 s.
For `CCCn1cc(CCNS(=O)(=O)c2ccc(CC)cc2)c2cccnc21` the value was 935 s; for `COc1cccc(NC(=O)N2CCC3(C2)C(=O)Nc2ccc(OC)cc23)c1` (centres undefined), 701 s.
`Cc1cc(N2CCN(C(=O)Nc3ccc4c(c3)OCO4)CC2)nc(N2CCCC2)n1` gave an RP-LC retention time of 637 s.
`Fc1ccc(Nc2nc(-c3ccccc3)cs2)cc1`: the RP-LC retention time was 1120 s.
For `Cn1cnc(S(=O)(=O)N2CCC(C(=O)NCc3cccs3)CC2)c1` the value was 640 s.
For `CN(CC1CCOC1)C(=O)Nc1cc(F)cc(F)c1` (centres undefined) the value was 744 s.
Regarding `Cc1cc(SCC(=O)N2CCN(c3ccccc3)CC2)nc(-c2ccc(F)cc2)n1`, the RP-LC retention time was 1160 s.
For the compound `O=C(NCc1ccccc1)C1CCCN(c2nnc3ccc(Cl)cn23)C1` (centres undefined), the RP-LC retention time came out at 739 s.
As for `COc1ccc(OC)c(S(=O)(=O)Cc2nc(-c3ccc(Cl)cc3)no2)c1`, the RP-LC retention time was 1030 s.
As to `O=C(c1cccc(F)c1)N1CCN(c2cnn3c(C4CC4)nnc3c2)CC1`, the RP-LC retention time was found to be 648 s.
For `CCc1ccc(-n2ncc3c(=O)n(Cc4nc(-c5ccc(F)cc5)no4)cnc32)cc1` the value was 1170 s.

(Values after the METLIN SMRT retention time set (Domingo-Almenara et al. 2019).)
